In patent US20240415819A1, “MACROCYCLIC COMPOUNDS AS PROTEASOME SUBUNIT BETA TYPE-5 INHIBITORS” (Lead Discovery Center GmbH, priority 2021, published 2024) one finds IC50 data, which are given here for 7 compounds.

Assay [1] deals with T1, β5 subunit of the human constitutive proteasome (CPS) (Homo sapiens, UniProt P28074).
T1 construct: purchased Boston Biochem E-360
The experiment in a line: β5 inhibition assay, human constitutive proteasome (Suc-LLVY-AMC). Format: biochemical. To be noted: IC50 class, Suc-LLVY-AMC substrate. How it is done:
The enzymatic activity of the β5 subunit of the human constitutive proteasome (CPS) is analyzed. In another assay, which differs from the assay of the human constitutive proteasome only in using the human immunoproteasome (IPS) the enzymatic activity of the β5 subunit of the human immunoproteasome (IPS) is analyzed. […] Inhibition is indicated as IC50 [nM] (“-”=not measured).

For assay [2], the system named is A549 (human lung carcinoma cell line). The experiment in a line: Glo assay of A549 cells (Table 3; ProteasomeGlo plating scheme). To be noted: Homo sapiens; A549 cells; read-out: PGLo A549. The assay is classed as cell-based. The gist of the method:
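After acoustic compound transfer, plates incubate 105 min (37° C., 5% CO2). Proteasome-Glo reagent containing Suc-LLVY-Glo substrate is added, plates are shaken, then luminescence is measured after 10-15 min to derive IC50 [nM]. Staurosporine and DMSO serve as controls.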

The subject of another assay is HT-29 cells. In words: CellTiter-Glo luminescent cell viability assay with HT-29 cells (72h incubation). Format: cell-based, human. To be noted: Homo sapiens, HT-29, HT29 cells, read-out: CTG HT29. The gist of the method: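 Viability read as CellTiter-Glo luminescence after 72 h compound exposure, with 10 μM staurosporine and DMSO as control wells. Seeding 400 cells per well, compound added 24 h post-plating; IC50 from curve fitting.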

Assay [3] deals with T2, β5 subunit of the human immunoproteasome (IPS) (Homo sapiens, UniProt P28062).
T2 construct: purchased Boston Biochem E-370
The experiment in a line: β5 inhibition assay, human immunoproteasome (Suc-LLVY-AMC). The assay is classed as biochemical. To be noted: IC50 class, Suc-LLVY-AMC substrate. The gist of the method:
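β5 activity is read as liberated AMC fluorescence (355/460 nm) after 4 h dark reaction at RT with 22.6 μM Suc-LLVY-AMC, stopped by 1 μM bortezomib. Beforehand, 1 nM human IPS and compound sat 10 min at RT in HEPES pH 7.5 buffer containing NaCl, 0.02% SDS and DTT.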

`Cc1ccc2cc1CNC(=O)C(c1cnn(C)c1)NC(=O)[C@@H](NC(=O)C1CCCc3ccccc31)CC(=O)N1CCCC(CCO2)C1` (stereo partly drawn) [Compound 360, N-((12S)-5^4-methyl-9-(1-methyl-1H-pyrazol-4-yl)-8,11,14-trioxo-4-oxa-7,10-diaza-1(3,1)-piperidina-5(1,3)-benzenacyclotetradecaphane-12-yl)-1,2,3,4-tetrahydronaphthalene-1-carboxamide]: the IC50 (in assay [1]; in assay [2]; with HT-29 cells; in assay [3]) was below 100 nM each time.

`CC(=O)N[C@H]1CCCC(=O)N(C)CCCCOc2ccc(C)c(c2)CNC(=O)[C@H](CCc2ccccc2)NC1=O` [Compound 295, N-(1^4,7-dimethyl-8,13,16-trioxo-15-phenethyl-2-oxa-7,14,17-triaza-1(1,3)-benzenacyclooctadecaphane-12-yl)acetamide]: the IC50 in assay [1] was below 100 nM; in assay [2], 100 to 500 nM; with HT-29 cells, below 100 nM; in assay [3], below 100 nM.

As to `CC(=O)N[C@H]1CCC(=O)N2CC3CC(Oc4ccc(C)c(c4)CNC(=O)[C@H](CCc4ccccc4)NC1=O)C3C2` (stereo partly shown) [Compound 299, N-(3^4-methyl-6,9,13-trioxo-7-phenethyl-2-oxa-13,5,8-triaza-1(6,3)-bicyclo[3.2.0]heptana-3(1,3)-benzenacyclotridecaphane-10-yl)acetamide], the IC50 was above 5000 nM in assay [1], above 5000 nM in assay [2], 100 to 500 nM in the assay on HT-29 cells and 500 to 1000 nM in assay [3].

As for `Cc1ccc2cc1CNC(=O)[C@H](CCc1ccccc1)NC(=O)[C@@H](NC(=O)Cc1cc(O)on1)CC(=O)N1CCCC(CCO2)C1` (stereo partly drawn) [Compound 335, 2-(5-hydroxyisoxazol-3-yl)-N-((9S,12S)-5^4-methyl-8,11,14-trioxo-9-phenethyl-4-oxa-7,10-diaza-1(3,1)-piperidina-5(1,3)-benzenacyclotetradecaphane-12-yl)acetamide], the IC50 (in assay [1]; in assay [2]; in the assay on HT-29 cells; in assay [3]) was below 100 nM in each case.

As to `CC(=O)N[C@H]1CC(=O)N2CCCC(CCOc3ccc(C)c(c3)CNC(=O)C(CCc3cccnc3)NC1=O)C2` (stereo partly drawn) [Compound 549, N-((12S)-5^4-methyl-8,11,14-trioxo-9-(2-(pyridin-3-yl)ethyl)-4-oxa-7,10-diaza-1(3,1)-piperidina-5(1,3)-benzenacyclotetradecaphane-12-yl)acetamide], the IC50 in assay [1] is below 100 nM; in assay [2], 100 to 500 nM; with HT-29 cells it was below 100 nM; in assay [3], below 100 nM.

Take `Cc1ccc2cc1CNC(=O)[C@H](CCc1ccccc1)NC(=O)[C@@H](NC(=O)OCc1ccccc1)CCCC(=O)NCCCCO2` [Compound 322, benzyl ((12S,15S)-1^4-methyl-8,13, 16-trioxo-15-phenethyl-2-oxa-7,14,17-triaza-1(1,3)-benzenacyclooctadecaphane-12-yl)carbamate]: the IC50 in assay [1] was below 100 nM; in assay [2] it was 1000 to 5000 nM; with HT-29 cells, 100 to 500 nM; in assay [3] it was below 100 nM.

`Cc1ccc2cc1CNC(=O)[C@H](CCc1ccccc1)NC(=O)[C@@H](NC(=O)OCc1ccccc1)CC(=O)N1CC(C)CC(CCO2)C1` (stereo partly drawn) [Compound 337, benzyl ((9S,12S)-1^5,5^4-dimethyl-8,11,14-trioxo-9-phenethyl-4-oxa-7,10-diaza-1(3,1)-piperidina-5(1,3)-benzenacyclotetradecaphane-12-yl)carbamate]: the IC50 in assay [1] is below 100 nM; in assay [2], 100 to 500 nM; in the assay on HT-29 cells it was below 100 nM; in assay [3] it was below 100 nM.
